Legend:
[1] = test system: α1β glycine receptors (wild-type); set-up: method as in earlier work; details: heterologously expressed α1β wild-type (WT) glycine receptors; cited from earlier work
[2] = molecular target: T1, human α1S267I-GlyR expressed in HEK 293 cells (Homo sapiens, UniProt P23415, S295I); details: S267I
T1 sequence (P23415 29-457 S295I): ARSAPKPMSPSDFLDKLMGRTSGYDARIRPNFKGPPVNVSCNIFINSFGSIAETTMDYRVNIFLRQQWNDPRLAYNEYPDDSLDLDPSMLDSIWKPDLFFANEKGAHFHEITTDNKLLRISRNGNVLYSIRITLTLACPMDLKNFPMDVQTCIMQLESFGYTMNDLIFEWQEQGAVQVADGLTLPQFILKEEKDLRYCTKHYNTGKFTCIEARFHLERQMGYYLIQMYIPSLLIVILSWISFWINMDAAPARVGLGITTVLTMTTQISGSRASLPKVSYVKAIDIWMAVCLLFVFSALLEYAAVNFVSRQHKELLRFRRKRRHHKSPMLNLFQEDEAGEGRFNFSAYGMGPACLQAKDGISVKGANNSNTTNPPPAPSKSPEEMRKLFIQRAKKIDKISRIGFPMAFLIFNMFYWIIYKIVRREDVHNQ
Source text: Human α1-, α1R271Q-, α1R271L-, α1R271K and α1S267I-GlyR subunits were transiently transfected into human embryonic kidney cells (HEK 293, ATCC, Manassas, USA). The wild type α1-GlyR -cDNA was cloned in pCIS2 (Invitrogen, San Diego, USA) vector and provided by Prof. Heinrich Betz (Max-Planck-Institut für Hirnforschung, Frankfurt am Main, Germany). For the plasmid cDNA of the mutated α1R271Q-, α1R271L-, α1R271K- and α1S267I-GlyR the eukaryotic expression vector pcDNA1amp (Invitrogen, San Diego, USA), under the control of cytomegalovirus promoter, was used. For site-directed mutagenesis, single stranded template cDNA was synthesized from M13 origin of replication and the mutations of arginine residue (R) at position 271 to glutamine (R271Q), leucine (R271L) or lysine (R271K) and mutation of serine residue (S) at position 267 to isoleucine (S267I) were generated using standard procedures. […] Wild type and mutated α1-GlyR subunits efficiently form homomeric receptors in heterologous expression systems.
HEK 293 cells were cultured in medium containing HAMS’F-12 (Biochrom, Berlin, Germany), supplemented with 10% fetal bovine serum (FBS, Biochrom, Berlin, Germany), 100 U ml^–1 penicillin and 100μgml^–1 streptomycin (Gibco BRL, Life Technologies, Karlsruhe, Germany) at 37°C in a 5% CO2/ 95% air incubator. For transfection cells were suspended in a buffer containing 50mM K2HPO4 (Fluka BioChemika, Seelze, Germany), 20mMK-acetate (Sigma-Aldrich, Taufkirchen, Germany) and 25mM MgSO4 (Sigma-Aldrich, Taufkirchen, Germany) at pH 7.35. To visualize transfected cells, they were co-transfected with cDNA encoding for enhanced green fluorescent protein (EGFP) contained in the pEGFP-N1 expression vector (Clontech, Palo Alto, USA). The corresponding cDNA (5μg for the GlyR and 2.5μg for EGFP) was added to 400μl of the cell suspension and the mixture was rapidly transferred into the electroporation cuvette. For transfection we used an electroporation device by EquiBio (Kent, UK) and a 4mm aluminum electrode electroporation cuvette (Peqlab, Erlangen, Germany).
The phenol derivative 4-chloropropofol ([…]) was provided as pure substance by Prof. Paul M. O’Neill (University of Liverpool, England), prepared as light-protected 1M stock solution in ethanol (EtOH, J.T.Baker, Griesheim, Germany) and stored in glass vessels at −20°C.
Drug-containing vials were vigorously vortexed for 30min. Patch electrodes were filled with an intracellular solution of [mM] KCl 140, MgCl2 2, EGTA 11, HEPES 10, glucose 11, CaCl2 1 with pH 7.3, adjusted with 1 M KOH and a bath solution contained [mM] NaCl 162, KCl 5.31, NaHPO4 0.85, KH2PO4 0.22, HEPES 15, glucose 6.11, pH 7.4 adjusted with 1 M NaOH. Osmolarity of both solutions was set at 280–300 mOsmol.
Whole-cell experiments were performed at a holding potential of −30 mV with a mean seal resistance of 1 GΩ. […] A fast liquid filament switch technique was used for the application of the agonist, presented in pulses of 2 s duration every 20 s. The liquid filament switch technique is able to exchange the solution passing an outside-out patch or small whole-cells within 1–2 ms. We calculated flow rate of background solution through the chamber with 3,4 ml/min corresponding to 4% of maximal pump rate. With regard to the chamber volume of 100 μl the exchange solution time within the chamber was assessed to approximately […], dependent on cell size accordingly. Piezo-switch and small diameter capillary (ID 0.15 mm) within the measurement chamber promoted the millisecond solution exchange. […] The induced current (I) by this saturating control solution was defined as Icontrol. […] The stability of the seal was controlled during the complete experiment via control of the seal resistance. A variation of 10-20% of the basic value was regarded as tolerable.

Molecule	potency relative to propofol in enhancing glycine induced currents [1] [fold]	Current amplitude [% of mean WT current amplitude] ± SEM [2] [%]	nH ± SEM (Hill coefficient), glycine activation [2]	Rise time ± SEM ([2]; 10-90% of Imax, monoexponential fit) [ms]	Mean current amplitude ± SEM ([2]; saturating glycine 1 mM) [pA]
4-chloro-2,6-dimethylphenol [4-chloropropofol]	~1000	–	–	–	–
NCC(=O)O [glycine]	–	68.2±68	1.1±0.2	6.6 ± 2.5	1122±765
